Columns and labels:
[1] = tested on: T1, Trypanosoma brucei brucei bloodstream forms; experiment: microbe, parasite or virus in culture; design: Resazurin viability of bloodstream form parasites, fluorescence 560/590 nm, dose-response, initial screen n = 1; details: initial screen, n = 1, 0.5% DMSO
T1 construct: 427 single marker, bloodstream form
Description: Cell viability assays were carried out in 96 well plates with 200 µL of culture per well as described previously. For this study we used bloodstream forms (BSF) of Trypanosoma brucei brucei strain 427 single marker. Axenic cultures of parasites were maintained at the logarithmic phase of cell proliferation (density below 2 ×10^6 parasites/mL) by successive passages in HMI-11 media supplemented with 10% heat inactivated foetal calf serum and 2.5 mg/L geneticin (Ge418) at 37°C under an atmosphere of 5% CO2. Parasites were seeded at 5 ×10^3 cells/mL and incubated with drug for 66 hours. The plate included wells containing the positive control pentamidine (100 nM) and the negative control of 0.5% DMSO. After 66 hours, 10 µL of 1.1 mg/mL Resazurin sodium salt was added in PBS and incubated for a further 6 hours. Plates were then read on a plate reader using excitation/emission 560/590 nm. EC50 values and errors were calculated using a sigmoidal dose response fitting algorithm. The initial screen was performed at n = 1 with follow-up screen of hits n = 4 technical replicates. The set of diverse sulfonyl fluoride probes was screened against Trypanosoma brucei brucei bloodstream forms in 96-well plate format (final concentrations: 0.1–100 μM in 0.5% dimethyl sulfoxide (DMSO); n = 1) (Fig. 3b). […]

[2] = target: T2, prolyl endo-/oligo-peptidase S9 (Q38AG2) (Trypanosoma brucei, UniProt Q38AG2); experiment: C-1alk click biotin pulldown, LFQ LC-MS/MS; format: biochemical; details: covalent; labelled compound; parasite lysate; 1.5 uM C-1alk, 1 h, 25 C
T2 construct: gene Tb10.6k15.2520; native protein in parasite lysate
T2 sequence (Q38AG2 entry or part of it, one chain of several): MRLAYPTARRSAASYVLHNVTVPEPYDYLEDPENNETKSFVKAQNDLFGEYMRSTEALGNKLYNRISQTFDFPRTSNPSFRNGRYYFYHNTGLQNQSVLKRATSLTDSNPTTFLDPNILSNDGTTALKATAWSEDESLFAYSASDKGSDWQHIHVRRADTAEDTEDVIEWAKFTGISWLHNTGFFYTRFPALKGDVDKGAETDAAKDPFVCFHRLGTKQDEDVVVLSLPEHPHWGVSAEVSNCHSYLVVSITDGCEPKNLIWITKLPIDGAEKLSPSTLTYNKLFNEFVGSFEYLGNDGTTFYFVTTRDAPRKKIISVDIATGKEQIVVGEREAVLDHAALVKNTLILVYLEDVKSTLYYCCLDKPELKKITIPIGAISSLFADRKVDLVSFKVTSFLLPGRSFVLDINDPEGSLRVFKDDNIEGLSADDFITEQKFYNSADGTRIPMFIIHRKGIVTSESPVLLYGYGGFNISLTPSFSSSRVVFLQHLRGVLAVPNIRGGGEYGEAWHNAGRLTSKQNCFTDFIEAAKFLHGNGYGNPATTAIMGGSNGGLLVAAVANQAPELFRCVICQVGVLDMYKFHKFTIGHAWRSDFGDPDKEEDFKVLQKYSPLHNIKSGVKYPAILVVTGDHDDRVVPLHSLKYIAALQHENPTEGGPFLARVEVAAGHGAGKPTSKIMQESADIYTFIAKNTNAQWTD

[3] = target: T3, T. brucei glycerol kinase (Q38DF0) (Trypanosoma brucei, UniProt Q38DF0); experiment: modified-peptide LC-MS/MS after click to cleavable biotin-azide; format: binding; details: covalent; labelled compound; parasite lysate; site S137, T138 or Y139
T3 construct: gene Tb09.211.3570; native protein in parasite lysate
T3 sequence (Q38DF0 entry or part of it): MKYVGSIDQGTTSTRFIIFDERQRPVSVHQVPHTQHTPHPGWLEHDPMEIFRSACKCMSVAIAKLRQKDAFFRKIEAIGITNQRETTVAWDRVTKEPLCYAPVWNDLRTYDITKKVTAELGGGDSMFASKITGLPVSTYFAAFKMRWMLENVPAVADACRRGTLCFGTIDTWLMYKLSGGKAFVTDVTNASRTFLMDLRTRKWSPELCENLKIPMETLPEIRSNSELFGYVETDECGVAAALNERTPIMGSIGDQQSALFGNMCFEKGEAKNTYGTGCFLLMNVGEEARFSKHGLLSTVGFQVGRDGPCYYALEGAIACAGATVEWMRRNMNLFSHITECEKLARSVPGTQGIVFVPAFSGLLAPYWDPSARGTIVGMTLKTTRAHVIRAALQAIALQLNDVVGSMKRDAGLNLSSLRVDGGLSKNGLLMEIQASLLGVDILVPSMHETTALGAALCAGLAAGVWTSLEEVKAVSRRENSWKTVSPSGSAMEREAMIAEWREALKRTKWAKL

[4] = target: T4, lyso-phospholipase (D6XM23) (Trypanosoma brucei, UniProt D6XM23); experiment: C-1alk click biotin pulldown, LFQ LC-MS/MS; format: biochemical; details: covalent; labelled compound; parasite lysate; 1.5 uM C-1alk, 1 h, 25 C
T4 construct: gene Tb08.11J15.160; native protein in parasite lysate, about 30 kDa
T4 sequence (D6XM23 entry or part of it): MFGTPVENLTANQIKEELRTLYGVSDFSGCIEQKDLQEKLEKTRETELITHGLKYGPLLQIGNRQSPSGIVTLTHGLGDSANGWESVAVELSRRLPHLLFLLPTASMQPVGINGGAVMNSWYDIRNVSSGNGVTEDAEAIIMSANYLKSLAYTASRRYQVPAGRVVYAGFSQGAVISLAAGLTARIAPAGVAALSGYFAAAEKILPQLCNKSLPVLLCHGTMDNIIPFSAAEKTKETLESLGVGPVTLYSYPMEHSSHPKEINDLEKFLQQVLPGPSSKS

Structure (SMILES)	EC50 [1] [nM]	C-1alk click biotin pulldown, LFQ LC-MS/MS [2]	modified-peptide LC-MS/MS after click to cleavable biotin-azide [3]	C-1alk click biotin pulldown, LFQ LC-MS/MS [4]
CC(C)(C)OC(=O)N1CCCC1c1ccc(S(=O)(=O)F)cn1 (stereo not shown) [C-1]	330			
C#CCOC(=O)N1CCCC1c1ccc(S(=O)(=O)F)cn1 (stereo not shown) [C-1alk]		prolyl endo-/oligo-peptidase S9 (Q38AG2), which had been previously enriched with our C-1alk probe	identify peptides matching the expected mass shift for T. brucei glycerol kinase (Q38DF0)	Lyso-phospholipase emerged as the sole common hit labelled by both C-1alk and FP-biotin

— publication PMC11490619, “Discovery of Trypanosoma brucei inhibitors enabled by a unified synthesis of diverse sulfonyl fluorides” (Communications Chemistry, 2024)
